Assay results reported in patent publication US5972976A, “Aminostilbazole derivative and medicine” (priority 1994, dated 1999).
Values after ≈ are worked out from the molar mass of the structure shown. Where two headings read alike, the source gives them in different places.

Columns and labels:
tubulin = settings: J. Med. Chem. 1991, 34, 2579; cited from earlier work
[1] = system: KB (human nasopharynx carcinoma); assay: In vitro anticancer effect (MTT), KB cell line; format: cell-based; settings: KB cells, 72 hours, read-out: IC50 (50% cell growth-inhibitory concentration)
Procedure: (§1) In Vitro anticancer effects on KB (human nasopharynx carcinoma), Colon 38 (mouse colon cancer), and WiDr (human colorectal cancer) cell lines
(§2) Each of KB, Colon 38, and WiDr cell lines were respectively cultured using 10% fetal calf serum-supplemented D-MEM medium (Nissui Pharmaceutical). Each monolayer of cells was exfoliated with a 50:50 (v/v) mixture of 0.25% trypsin and 0.02% ethylenediaminetetracetic acid and after inactivation of trypsin, the cells were collected by centrifuging at 800 rpm for 3 minutes and suspended in the same medium as above. Using a hemocytometer, the number of the cells in the suspension were counted. The suspension was diluted with the medium to 5×10^4 cells/ml and distributed to a 96-well flat-bottomed plate, 100 μl per well.
(§3) The test drug was first dissolved in dimethyl sulfoxide at a concentration of 2 mg/ml and diluted with the above medium to 20 μg/ml. Using this solution for the highest concentration, a doubling dilution series was prepared and 100 μl of each dilution was added to the above cell suspension.
(§4) The plate was then incubated under 5% CO2 -air at 37° C. for 72 hours. Then, a 5 mg/ml solution of MTT [3-(4,5-dimethylthiazol-2-yl)-2,5-diphenyltetrazolium bromide] was added to the plate, 30 μl per well and the reaction was carried out under 5% CO2 -air at 37° C. for 4 hours. After the reaction, the solution in each well was aspirated off and 100 μl/well of dimethyl sulfoxide was added. After 5 minutes of shaking, the absorbance at 540 nm was measured with a Multiscan (Titertek) and the 50% cell growth-inhibitory concentration (IC50) was calculated.

[2] = system: Colon 38 (mouse colon cancer); assay: In vitro anticancer effect (MTT), Colon 38 cell line; format: cell-based; settings: Colon 38 cells, 72 hours, read-out: IC50 (50% cell growth-inhibitory concentration)
Procedure: as §1, §2, §3, §4

[3] = system: WiDr (human colorectal cancer); assay: In vitro anticancer effect (MTT), WiDr cell line; format: cell-based; settings: WiDr cells, 72 hours, read-out: IC50 (50% cell growth-inhibitory concentration)
Procedure: as §1, §2, §3, §4

microtubule protein = assay: Microtubule polymerization-inhibitory activity; format: biochemical; settings: porcine brain microtubule protein, 37° C., pH 6.8, 350 nm; read-out: 50% inhibitory concentration against microtubule protein polymerization
Procedure: Microtubule polymerization-inhibitory activity Microtubule polymerization-inhibitory activity
A microtubule protein (a mixed solution of microtubule protein and microtubule-bound protein) was purified from a crude porcine brain extract according to the method of Williams et al. [Method in Enzymology, 85, 36, 1982] to isolate and the microtubule polymerization inhibitory activity of the compound of the invention was studied. The microtubule protein solution was diluted to 4 mg/ml as purified microtubule protein with GTP (guanosine-5'-triphosphate)-added reaction buffer (pH 6.8) {100 mM MES [2-(N-morpholinoethanesulfonic acid], 0.5 mM MgCl2 -1 mM EGTA (ethylene glycol bis(β-aminoethyl ether)-N,N,N',N'-tetracetic acid), 1 mM GTP} under ice-cooling and after degassing in ice, the test drug was added. Using a spectrophotometer maintained at 37° C., the absorbance of the system at 350 nm was measured at 2-minute intervals for 30 minutes to construct a polymerization curve and the concentration corresponding to 50% inhibition of microtubule protein polymerization was calculated. As the test drug, the compound of Example 3A was used.

[4] = system: WiDr tumor cells transplanted in nude mice; assay: Growth inhibitory activity against WiDr tumor cells transplanted in nude mice; format: in vivo; settings: oral; for Growth inhibition rate at day 16 after initiation of administration: once daily
From the text: Growth inhibitory activity against WiDr tumor cells transplanted in nude mice The tumor subcutaneously subcultured in nude mice (BALB/c nu/nu, male) aged 5-7 weeks were excised. After removal of the skin and connective tissue around the tumor, the tumor mass was split to remove the central necrotic tissue and, then, cut into cubes with a 2 mm side. One cube was loaded into a grafting needle and transplanted subcutaneously in the right thoracic region of the nude mouse. The major and minor diameters of the tumor were measured with calipers and the tumor volume was calculated by means of Equation 1. Starting when the volume had reached about 100 mm^3, the mice were divided into 6 individuals per group and the test drug suspended in 0.5% methylcellulose solution was administered orally by gastric gavage once daily.
Volume=1/2×major diameter×(minor diameter)^2Equation 1
The tumor volume was determined by the above method at predetermined intervals. From the tumor volume thus calculated, the growth rate was calculated by means of Equation 2. Then, using Equation 3, the growth inhibition rate in each drug treatment group relative to the control group was calculated.
Growth rate=tumor volume at day n/tumor volume at initiation of administration Equation 2
Growth inhibition rate (%)=(1-growth rate in drug treatment group/growth rate in control group)×100 Equation 3
As the test compound, the compound of Example 3A was used.

[5] = system: Colon-26 (mouse colon cancer) cells transplanted in mice; format: in vivo, mouse (BALB/c, male); settings: oral, once daily for 8 days
Procedure: Anticancer activity against Colon-26 (mouse colon cancer) cells transplanted in mice
Using an injection syringe, Colon-26 cells cultured in vitro were transplanted subcutaneously in a dose of 5×10^5 /animal in the right thoracic region of BALB/c mice (5 weeks old, male). As in Test Example 3, the mice were divided into groups of 6 when the tumor volume had reached about 150 mm^3. Starting the following day, the test drug suspended in 0.5% methylcellulose solution was administered orally by gastric gavage once daily for 8 days. The tumor volume was measured at a predetermined interval by the same method as in Test Example 3 and the tumor growth inhibition rate in each drug treatment group relative to the control group was calculated. As the test compound, the compound of Example 3A was used.

[6] = system: mouse monocytic leukemia P-388 cell line; assay: In vivo anticancer activity against mouse monocytic leukemia P-388 cell line; design: species or system mouse (CDF1); settings: oral, twice (following day and after 5 days)
Procedure: In vivo anticancer activity against mouse monocytic leukemia P-388 cell line
A suspension of tumor cells was transplanted intraperitoneally in CDF1 mice in a dose of 10^6 cells/animal. On the following dav and after 5 days, or twice, the test drug suspended in 0.5% methylcellulose solution was administered orally. The experiment was performed in 8-12 mice for each control group and 6 mice for each drug treatment group.
For evaluation, the median survival time in days was determined for each drug treatment group (T) and control group (C) and T/C (%) was calculated.

[7] = Acute toxicity, single oral administration; settings: mouse, in vivo, mortality after 2 weeks, probit method
Procedure: Male 5-week-old CDF1 mice were used. After the compound of Example 3B or 34 was orally administered once, the mortality rate was investigated after 2 weeks and the LD50 value was calculated by the probit method. […] The high safety of the compound of the invention is obvious.

SMILES	IC50 [1] [µg/mL]	IC50 [2] [µg/mL]	IC50 [3] [µg/mL]	T/C (median survival time, treated/control) ([6]; 25 mg/kg) [%]	T/C (median survival time, treated/control) ([6]; 50 mg/kg) [%]	T/C (median survival time, treated/control) ([6]; 100 mg/kg) [%]	T/C (median survival time, treated/control) ([6]; 200 mg/kg) [%]	also measured
COc1ccc(/C=C\c2cc(OC)c(OC)c(OC)c2)cc1 [(Z)-3,4,5-trimethoxy-4'-methoxystilbene]								tubulin polymerization-inhibitory activity (tubulin): have tubulin polymerization-inhibitory activity
COc1ccc(S(=O)(=O)Nc2ncccc2/C=C/c2ccccc2)cc1 [Example 1, (E)-2-[[(p-Methoxyphenyl)sulfonyl]amino]-3-(2-phenyl-ethenyl)pyridine]	0.44 (≈ 1.2 µM)	0.75 (≈ 2.05 µM)	0.45 (≈ 1.23 µM)					
COc1ccc(S(=O)(=O)Nc2ccccc2/C=C\c2cccnc2)cc1 [Example 2 (cis), 3-[2-[2-[[(p-Methoxyphenyl)sulfonyl]amino]phenyl]ethenyl]pyridine]	4.86 (≈ 13.3 µM)	6.48 (≈ 17.7 µM)	4.81 (≈ 13.1 µM)					
COc1ccc(S(=O)(=O)Nc2ccccc2/C=C/c2cccnc2)cc1 [Example 2 (trans), 3-[2-[2-[[(p-Methoxyphenyl)sulfonyl]amino]phenyl]ethenyl]pyridine]	0.1 (≈ 0.273 µM)	0.15 (≈ 0.409 µM)	0.09 (≈ 0.246 µM)					
COc1ccc(S(=O)(=O)Nc2ccccc2/C=C/c2ccncc2)cc1 [Example 3A, (E)-4-[2-[2-[[(p-Methoxyphenyl)sulfonyl]amino]phenyl]ethenyl]pyridine]	0.0026 (≈ 0.0071 µM)	0.0031 (≈ 0.00846 µM)	0.0025 (≈ 0.00682 µM)					IC50 (microtubule protein): 11.2 µM; Growth inhibition rate at day 16 after initiation of administration ([4]; 10 mg/kg/day): 16.4%; Growth inhibition rate at day 16 after initiation of administration ([4]; 30 mg/kg/day): 57.0%; death by the end of the administration period ([4]; 100 mg/kg, once daily for 14 days): no death occurred; Growth inhibition rate at day 16 after initiation of administration ([4]; 100 mg/kg/day): 81.7%; Growth inhibition rate at day 13 after initiation of administration ([5]; 25 mg/kg/day): 44.8%; Growth inhibition rate at day 13 after initiation of administration ([5]; 50 mg/kg/day): 95.3%
COc1ccc(S(=O)(=O)Nc2ccccc2/C=C/c2ccncc2)cc1.Cl [Example 3B, (E)-4-[2-[2-[[(p-Methoxyphenyl)sulfonyl]amino]phenyl]ethenyl]pyridine Hydrochloride]				116	126	168	221	LD50 at 336 h [7]: 510 mg/kg
COc1ccc(S(=O)(=O)Nc2ccccc2/C=C/c2ccccn2)cc1 [Example 4, (E)-2-[2-[2-[[(p-Methoxyphenyl)sulfonyl]amino]phenyl]ethenyl]pyridine]	0.12 (≈ 0.327 µM)	0.16 (≈ 0.437 µM)	0.16 (≈ 0.437 µM)					
COc1ccc(S(=O)(=O)Nc2ccccc2/C=C/c2cc[n+]([O-])cc2)cc1 [Example 20, (E)-4-[2-[2-[[(p-Methoxyphenyl)sulfonyl]amino]phenyl]ethenyl]pyridine 1-oxide]				135	115	180	195	
COc1ccc(S(=O)(=O)N(CCO)c2ccccc2/C=C/c2ccncc2)cc1 [Example 34, (E)-4-[2-[2-[N-(2-Hydroxyethyl)-N-[(p-methoxyphenyl)sulfonyl]amino]phenyl]ethenyl]pyridine]				105	124	167	210	LD50 at 336 h [7]: 754 mg/kg
COc1ccc(S(=O)(=O)N(CCO)c2ccccc2/C=C/c2cc[n+]([O-])cc2)cc1 [Example 49, (E)-4-[2-[2-[N-(2-Hydroxyethyl)-N-[(p-methoxyphenyl)sulfonyl]amino]phenyl]ethenyl]pyridine 1-oxide]						185	220	
COc1ccc(S(=O)(=O)N(C(C)=O)c2ccccc2/C=C/c2cc[n+]([O-])cc2)cc1 [Example 57, (E)-4-[2-[2-[N-Acetyl-N-[(p-methoxyphenyl)sulfonyl]amino]phenyl]ethenyl]pyridine 1-oxide]				115	160	215	250	
